Key:
Type in all cases: in vivo
large Bowel = test: Motility of the large bowel (colonic motor complex) in conscious dogs
Source text: Male dogs (THG Tierhandelsgesellschaft Rodenbach, Hoe:BEAK (Beagle)) weighing 15 - 20 kg were used in all experiments.
(§1) At least 4 weeks prior the experiment the dogs had been equipped with miniaturised strain gage force transducers (T1-T2) (2x4mm), sutured onto the gut at the locations mentioned below. The cables of the transducers were embedded into a cannula which carried the plug for external electric connection. This stainless steel cannula was implanted into the abdominal wall, close below the costal arch. Each transducer was connected to a measuring bridge. The signals were on line stored using a HP 9835 A computer, allowing later analysis of the data. • T1 : Colon ascendens 10 cm aborafrom the ileoceval valve (ICV) • T2 : Colon transversum 25 cm aborad from the ICV
(§2) 18 hours prior to the experiment food was withdrawn from the animals, water ad libidum. All experiments started between 08:00 and 09:00 am.
The following parameters were determined: The duration of the cycle (min) The duration of the colonic motor complex (CMC) (min) The maximal height of the concentrations (AU: arbitrary units)
Data from the two recording sites (T1-T2) were pooled. […]
For detection of significant differences (p < 0.05) the unpaired t-test was used. Only significant differences were indicated by *.

small intestine [1] = test: Motility of the small intestine in the conscious dog; conditions: for Area under the contraction curve, Postdrug 10 min: 10 min postdrug; for Area under the contraction curve, Postdrug 10 min / Area under the contraction curve, Postdrug 20 min / Area under the contraction curve, Postdrug 30 min / Area under the contraction curve, Postdrug 40 min / Area under the contraction curve, Postdrug 50 min / Area under the contraction curve, Postdrug 60 min / Area under the contraction curve, Predrug -20 - 0: phase I and II; for Area under the contraction curve, Postdrug 20 min: 20 min postdrug; for Area under the contraction curve, Postdrug 30 min: 30 min postdrug; for Area under the contraction curve, Postdrug 40 min: 40 min postdrug; for Area under the contraction curve, Postdrug 50 min: 50 min postdrug; for Area under the contraction curve, Postdrug 60 min: 60 min postdrug; for Inhibition Maximal / Inhibition Mean / ED50: phase I+II activity; for Area under the contraction curve, Predrug -20 - 0: predrug baseline -20 - 0 min; for Duration of action: when postdrug values reached 90 % or more of predrug values; for ED50: Canis lupus familiaris, iv, conscious dog, read-out: intravenous IC₅₀-values determined from maximal inhibition
Source text: as §1, with “Male dogs (THG Tierhandelsgesellschaft Rodenbach, Hoe:BEAK (Beagle)) weighing 15 - 20 kg were used in all experiments. At” for “At”, “prior to” for “prior”, “miniaturized” for “miniaturised”, “(T1-T3) (2x4 mm),” for “(T1-T2) (2x4mm),”, “Proximal jejunum” for “Colon ascendens 10 cm aborafrom the ileoceval valve (ICV)”, “Distal jejunum • T3 : Ileum” for “Colon transversum 25 cm aborad from the ICV”
as §2
The following motility parameters were determined: The integral under the […] at 10 min intervals (mNx10min) as an index of phase I + II activity. The duration of drug action (min.) The duration of the interdigestive migrating complex (IMC) (min) as a measure of phase III activity.
Test Compound II was given at doses of 0.2 and 0.5 mg/kg i.v. or 5 mg/kg i.g., dissolved in saline, in a volume of 1 ml/kg (i.v.) or 2 ml/kg (i.g.), n = 3 - 6. Control n = 26.
Buscopan was given at doses of 0.3 and 1 mg/kg i.v., dissolved in saline, in a volume of 1 ml/kg, n = 4 - 6. Pitofenone was given at doses of 1 mg/kg i.v., dissolved in saline, in a volume of 1 ml/kg, n = 8.
ID₅₀-values were determined graphically.

small intestine [2] = test: Antispasmodic activity in anaesthetized dog (carbachol or acetylcholine induced intestinal contractions); conditions: anaesthetised dog
Experimental: Male mongrel dogs of weight range 10 to 15 kg were anaesthetised with pentobarbitone sodium (35 mg/ kg,i.v.). Slow i.v. infusion of pentobarbitone (5 mg/kg/hour) was given for maintenance anaesthesia. The endotracheal tube was inserted to facilitate spontaneous breathing. Both femoral artery and vein were cannulated respectively for recording blood pressure and administering drugs. After laparotomy, a small portion of small intestine distal to duodenum was isolated and saline filled balloon inserted and the opening was sutured. A fine polyethylene cannula was then inserted into the mesenteric artery which supplies to the area of intestine containing balloon for injection of carbachol or acetylcholine. A Statham pressure transducer was then attached to balloon cannula for recording both circular and longitudinal muscle contractions. All the parameters were recorded on 4 channel Nihon-Kohden recorder. The intestinal contractions were recorded after administering a standard dose of carbachol or acetylcholine (0.5 to 3 µg). Test compounds I and II were given at different doses 3,10 and 20 mg/kg intra-duodenally and spasmolytic activity was assessed at various time intervals. Anti-spasmodic activity was assessed by calculating percent reduction in agonist induced contractions and also noting onset and duration of activity. The test compounds were dissolved in distilled water (1% soln.). Table 3 Test compounds I and II were given at different doses (10, 30, 100, 300 and 1000 µg/kg) intravenously and spasmolytic activity was assessed at different time intervals. Anti-spasmodic activity was assessed by calculating percent reduction in agonist induced contractions. The ID₅₀ value was calculated from the dose response curve.

small intestine [3] = test: Gastrointestinal propulsion (charcoal transport) in mice
Experimental: Ref.: J.M.A. Zwagemakers and V. Claassen, Arzneim-Forsch/-Drug Res. 30 (II) Nr.9, p.1517 (1980).
The test compounds I and II were given orally by gavage in a range of 10 to 100 mg/kg doses 30 min before charcoal suspension (0.2 ml/animal, 10% charcoal in 5% gum acacia) in 18 hrs fasted mice (male or female, weight range 18 to 25 g). 30 min after administration of charcoal animals were killed and the extent of charcoal propulsion in the small intestine was measured. The inhibitory activity of test compound on charcoal transport was assessed as percent inhibition compared to length of intestine. For control group 10 ml/kg of saline was given.

CCCC[N+]1(C)[C@@H]2C[C@@H](OC(=O)[C@H](CO)c3ccccc3)C[C@H]1[C@@H]1O[C@@H]12 (stereo partly shown) [Buscopan]
Duration CMC (large Bowel; 3 mg/kg intragastrically): 6 ± 4 min
Duration Cycle (large Bowel; 3 mg/kg intragastrically): 35 ± 19 min
Max.heigth of CMC (large Bowel; 3 mg/kg intragastrically): 35±17 AU
Duration CMC (large Bowel; 10 mg/kg intragastrically): 5 ± 1 min
Duration Cycle (large Bowel; 10 mg/kg intragastrically): 32 ± 5 min
Max.heigth of CMC (large Bowel; 10 mg/kg intragastrically): 35±10 AU
effect on colonic motility (large Bowel; 3 and 10 mg/kg i.g.): no effect
Area under the contraction curve, Postdrug 10 min (small intestine [1]; 0.3 mg/kg i.v.): 1.78 mN x 10 min
Area under the contraction curve, Postdrug 20 min (small intestine [1]; 0.3 mg/kg i.v.): 1.74 mN x 10 min
Area under the contraction curve, Postdrug 30 min (small intestine [1]; 0.3 mg/kg i.v.): 2.17 mN x 10 min
Area under the contraction curve, Postdrug 40 min (small intestine [1]; 0.3 mg/kg i.v.): 2.15 mN x 10 min
Area under the contraction curve, Postdrug 50 min (small intestine [1]; 0.3 mg/kg i.v.): 1.80 mN x 10 min
Area under the contraction curve, Postdrug 60 min (small intestine [1]; 0.3 mg/kg i.v.): 1.60 mN x 10 min
Inhibition Maximal (small intestine [1]; 0.3 mg/kg i.v.): 29%
Inhibition Mean (small intestine [1]; 0.3 mg/kg i.v.): 23 ± 6%
Area under the contraction curve, Predrug -20 - 0 (small intestine [1]; 0.3 mg/kg i.v.): 2.09 mN x 10 min
Duration of action (small intestine [1]; 0.3 mg/kg i.v.): 20 min
Area under the contraction curve, Postdrug 10 min (small intestine [1]; 1 mg/kg i.v.): 0.85 mN x 10 min
Area under the contraction curve, Postdrug 20 min (small intestine [1]; 1 mg/kg i.v.): 0.86 mN x 10 min
Area under the contraction curve, Postdrug 30 min (small intestine [1]; 1 mg/kg i.v.): 1.23 mN x 10 min
Area under the contraction curve, Postdrug 40 min (small intestine [1]; 1 mg/kg i.v.): 2.03 mN x 10 min
Area under the contraction curve, Postdrug 50 min (small intestine [1]; 1 mg/kg i.v.): 2.09 mN x 10 min
Area under the contraction curve, Postdrug 60 min (small intestine [1]; 1 mg/kg i.v.): 1.99 mN x 10 min
Inhibition Maximal (small intestine [1]; 1 mg/kg i.v.): 58%
Inhibition Mean (small intestine [1]; 1 mg/kg i.v.): 52 ± 6%
Area under the contraction curve, Predrug -20 - 0 (small intestine [1]; 1 mg/kg i.v.): 2.03 mN x 10 min
Duration of action (small intestine [1]; 1 mg/kg i.v.): 30 min
ED50 (small intestine [1]): 0.6 mg/kg

COC(=O)c1ccccc1C(=O)c1ccc(OCCN2CCCCC2)cc1.Cl [Test Compound I, Methyl-2-[4-(2-piperidino-ethoxy)-benzoyl]-benzoate hydrochloride]
Duration (small intestine [2]; 20 mg/kg intra-duodenal): 40 min
On-set (small intestine [2]; 20 mg/kg intra-duodenal): 20 min
Percent Inhibition (small intestine [2]; 20 mg/kg intra-duodenal): 63%
ED50 (small intestine [2]; Canis lupus familiaris, iv, read-out: ID₅₀): 0.14 mg/kg
Duration of action (small intestine [2]; intravenous administration): 10 to 30 min
Percent Inhibition (small intestine [3]; 60 mg/kg p.o.): 24.0 ± 3.0%
Percent Inhibition (small intestine [3]; 100 mg/kg p.o.): 30.0 ± 4.3%
Area under the contraction curve, Postdrug 10 min (small intestine [1]; 1 mg/kg i.v.): 1.58 mN x 10 min
Area under the contraction curve, Postdrug 20 min (small intestine [1]; 1 mg/kg i.v.): 2.01 mN x 10 min
Area under the contraction curve, Postdrug 30 min (small intestine [1]; 1 mg/kg i.v.): 2.59 mN x 10 min
Area under the contraction curve, Postdrug 40 min (small intestine [1]; 1 mg/kg i.v.): 2.29 mN x 10 min
Area under the contraction curve, Postdrug 50 min (small intestine [1]; 1 mg/kg i.v.): 3.16 mN x 10 min
Area under the contraction curve, Postdrug 60 min (small intestine [1]; 1 mg/kg i.v.): 3.64 mN x 10 min
Inhibition Maximal (small intestine [1]; 1 mg/kg i.v.): 47%
Inhibition Mean (small intestine [1]; 1 mg/kg i.v.): 29 ± 7%
Area under the contraction curve, Predrug -20 - 0 (small intestine [1]; 1 mg/kg i.v.): 2.96 mN x 10 min
Duration of action (small intestine [1]; 1 mg/kg i.v.): 40 min
ED50 (small intestine [1]): 1 mg/kg
